Assay results taken from patent US4061645A, “2-Trichloromethyl-5-methylsulfinyl-1,3,4-thiadiazole” (Schering Aktiengesellschaft, priority 1972, dated 1977).

What was measured:
Botrytis cinerea = assay: Agar test (Example 7), Botrytis; type: cell-based; conditions: 10 ppm; 5 days at 22° C; control 100
Method: (§1) The fungicidal action of the agents according to the invention was tested in artificial nutrient media against plant-pathogenic fungi in Petri dishes (agar test). The procedure was to sterilize the medium consisting of 2% malt extract and 1.5% agar-agar powder. Before the solidification of the medium, the active substances were added to it, mixing thoroughly, so that the medium received 10 parts of active substance per million (ppm). After the solidification of the medium, the latter was inoculated with a platinum dropper which contained 100 spores each of the fungi to be tested, and after five days at 22° C, an evaluation was made by measuring the diameter of the colonies in mm.

Asperqilus niger = assay: Agar test (Example 7), Aspergillus; type: cell-based; conditions: 10 ppm; 5 days at 22° C; control 100
Method: as §1

Stemphylium ilicis = assay: Agar test (Example 7), Stemphylium; type: cell-based; conditions: 10 ppm; 5 days at 22° C; control 100
Method: as §1

Helminthosporium sativum = assay: Agar test (Example 7), Helminthosporium; type: cell-based; conditions: 10 ppm; 5 days at 22° C; control 100
Method: as §1

[1] = tested on: Fusarium oxysporum f. callistephi; assay: Fusarium infested compost soil, Callistephus chinesis seedlings (Example 5); type: in vivo; conditions: of 4 seedlings
From the text: Steamed compost soil was inoculated with a spore suspension of Fusarium oxysporum f. callistephi. After homogeneous mixture of the products with the infested soil, the products were present as 20% powder preparations, and after a waiting period of 8 days, there were set out per concentration 4 seedlings of Callistephus chinesis, master aster "Sun Ray" as host plants.

Rhizoctonia solani [2] = assay: Limit concentration of soil-fungicidal effectiveness, Rhizoctonia solani, infested soil seeded with peas (Example 1); type: in vivo; conditions: soil, 480 h, 20 to 23 days, 22°-25° C, read-out: Limit concentration of the fungicidal effectiveness
Method: Limit concentrations of the soil-fungicidal effectiveness at homogeneous mixture of the products with the infested soil. Basic condition in the evaluation are a sound root formation without fungus necroses and germination of the seed of at least 90% compared with the result obtained in steamed soil. Per concentration there were seeded 25 grains of peas of the variety "Miracle of Kelvedon" (marrow pea) without a waiting period. The cultivation time in the tests was 20 to 23 days at a temperature of 22°-25° C. Four commercial products were included in the test series.
Rhizoctania solani: -- Steamed compost soil was inoculated with mycelium of Rhizoctonia solani.

[3] = tested on: Colletotrichum gloeosporioides; assay: Agar test (Example 7), Colletotrichum; type: cell-based; conditions: 10 ppm; 5 days at 22° C; control 100
Method: as §1

Rhizoctonia solani [4] = assay: Rhizoctonia solani infested compost soil, marrow peas (Example 3); type: in vivo; conditions: for Weight of fresh plant: 3 weeks; for Number of sound peas after 3 wks.: of 25 grains
From the text: Steamed compost soil was inoculated with mycelium of Rhizoctonia solani. After homogeneous mixture of the products with the infested soil, the products were present in the form of 20% powder preparations, the seeding of 25 grains of marrow peas of the variety "Miracle of Kelvedon" per concentration was effected without waiting period in clay dishes holding 1 liter of soil. The table lists the number of germinated sound peas, the weight of the fresh plant, and a root evaluation after a cultivation period of three weeks at 22°-25° C.

Meloidogyne incognita = assay: Nematocidal action, infested compost soil, cucumber seeds (Example 8); type: in vivo; conditions: 30 days
Method: The products as 20% powder preparations were homogeneously admixed with a compost soil heavily infested by root gal nematodes. Without a waiting period, 20 cucumber seeds per concentration were seeded. After a cultivation time of 30 days at a temperature of 23°-25° C, the nematocidal action was evaluated by counting the root galls formed in the waterbath. The following table states the reduction of attack in percent. In the control, an average of 90 root galls per seedling had formed.

Pythium ultimum = Pythium ultimum infested compost soil, marrow peas (Example 2); type: in vivo; conditions: 200 mg active ingr. per liter of soil
From the text: Steamed compost soil was inoculated with mycelium of Pythium ultimum.

[5] = 50 mg active ingredient per liter of soil
[6] = 100 mg active ingredient per liter of soil
[7] = 10 mg active ingr. per liter of soil
[8] = 20 mg active ingr. per liter of soil
[9] = 30 mg active ingr. per liter of soil

CCS(=O)(=O)c1nnc(C(Cl)(Cl)Cl)s1 [Compound 22, 2-trichloromethyl-5-ethylsulfonyl-1,3,4-thiadiazole]
diameter of the colonies (Botrytis cinerea): 0 mm
diameter of the colonies (Asperqilus niger): 0 mm
diameter of the colonies (Stemphylium ilicis): 0 mm
diameter of the colonies (Helminthosporium sativum): 0 mm
Number of attacked plants after 3 weeks [1, 5]: 0
Number of attacked plants after 3 weeks [1, 6]: 0
minimal effective concentration (Rhizoctonia solani [2]): 50 µg/mL
diameter of the colonies [3]: 0 mm

CCCC[S+]([O-])c1nnc(C(Cl)(Cl)Cl)s1 (stereo not drawn) [Compound 12, 2-trichloromethyl-5-butylsulfinyl-1,3,4-thiadiazole]
diameter of the colonies (Botrytis cinerea): 0 mm
diameter of the colonies (Asperqilus niger): 0 mm
diameter of the colonies (Stemphylium ilicis): 0 mm
diameter of the colonies (Helminthosporium sativum): 0 mm
minimal effective concentration (Rhizoctonia solani [2]): 50 µg/mL
diameter of the colonies [3]: 0 mm

CS(=O)(=O)c1nnc(C(Br)Br)s1 [Compound 32, 2-dibromomethyl-5-methylsulfonyl-1,3,4-thiadiazole]
diameter of the colonies (Botrytis cinerea): 0 mm
diameter of the colonies (Asperqilus niger): 0 mm
diameter of the colonies (Stemphylium ilicis): 0 mm
diameter of the colonies (Helminthosporium sativum): 0 mm
minimal effective concentration (Rhizoctonia solani [2]): 50 µg/mL
diameter of the colonies [3]: 0 mm

CC[S+]([O-])c1nnc(C(Cl)(Cl)Cl)s1 (stereo not drawn) [Compound 9, 2-trichloromethyl-5-ethylsulfinyl-1,3,4-thiadiazole]
Weight of fresh plant (Rhizoctonia solani [4]; [7]): 18 g
Number of sound peas after 3 wks. (Rhizoctonia solani [4]; [7]): 22
Weight of fresh plant (Rhizoctonia solani [4]; [8]): 16 g
Number of sound peas after 3 wks. (Rhizoctonia solani [4]; [8]): 22
Weight of fresh plant (Rhizoctonia solani [4]; [9]): 17 g
Number of sound peas after 3 wks. (Rhizoctonia solani [4]; [9]): 23
diameter of the colonies (Botrytis cinerea): 0 mm
diameter of the colonies (Asperqilus niger): 0 mm
diameter of the colonies (Stemphylium ilicis): 0 mm
diameter of the colonies (Helminthosporium sativum): 0 mm
Number of attacked plants after 3 weeks [1, 5]: 0
Number of attacked plants after 3 weeks [1, 6]: 0
minimal effective concentration (Rhizoctonia solani [2]): 10 µg/mL
diameter of the colonies [3]: 0 mm

CCS(=O)(=O)c1nnc(C(Cl)Cl)s1 [Compound 18, 2-dichloromethyl-5-ethylsulfonyl-1,3,4-thiadiazole]
diameter of the colonies (Botrytis cinerea): 13 mm
diameter of the colonies (Asperqilus niger): 0 mm
diameter of the colonies (Stemphylium ilicis): 0 mm
diameter of the colonies (Helminthosporium sativum): 0 mm
minimal effective concentration (Rhizoctonia solani [2]): 100 µg/mL
Nematocidal action in % (reduction of attack) (Meloidogyne incognita; 40 mg per liter of soil): 61%
Nematocidal action in % (reduction of attack) (Meloidogyne incognita; 60 mg per liter of soil): 90%
diameter of the colonies [3]: 41 mm

CCCS(=O)(=O)c1nnc(C(Cl)(Cl)Cl)s1 [Compound 23, 2-trichloromethyl-5-propylsulfonyl-1,3,4-thiadiazole]
Weight of fresh plant (Rhizoctonia solani [4]; [7]): 9 g
Number of sound peas after 3 wks. (Rhizoctonia solani [4]; [7]): 13
Weight of fresh plant (Rhizoctonia solani [4]; [8]): 17 g
Number of sound peas after 3 wks. (Rhizoctonia solani [4]; [8]): 21
Weight of fresh plant (Rhizoctonia solani [4]; [9]): 20 g
Number of sound peas after 3 wks. (Rhizoctonia solani [4]; [9]): 24
diameter of the colonies (Botrytis cinerea): 0 mm
diameter of the colonies (Asperqilus niger): 0 mm
diameter of the colonies (Stemphylium ilicis): 0 mm
diameter of the colonies (Helminthosporium sativum): 0 mm
minimal effective concentration (Rhizoctonia solani [2]): 30 µg/mL
diameter of the colonies [3]: 0 mm

S=C([S-])NCCNC(=S)[S-].[Zn+2] [Zinc ethylene-bis-dithiocarbamate, zinc-ethylene-bis-dithiocarbamate, reference compound]
diameter of the colonies (Botrytis cinerea): 36 mm
diameter of the colonies (Asperqilus niger): 78 mm
diameter of the colonies (Stemphylium ilicis): 55 mm
diameter of the colonies (Helminthosporium sativum): 50 mm
Weight of fresh plant (Pythium ultimum; 3 weeks): 7 g
Number of sound peas after 3 wks. (Pythium ultimum; of 25 grains): 14
diameter of the colonies [3]: 81 mm

CCCCS(=O)(=O)c1nnc(C(Cl)(Cl)Cl)s1 [Compound 25, 2-trichloromethyl-5-butylsulfonyl-1,3,4-thiadiazole]
diameter of the colonies (Botrytis cinerea): 0 mm
diameter of the colonies (Asperqilus niger): 0 mm
diameter of the colonies (Stemphylium ilicis): 0 mm
diameter of the colonies (Helminthosporium sativum): 0 mm
Number of attacked plants after 3 weeks [1, 5]: 0
Number of attacked plants after 3 weeks [1, 6]: 0
minimal effective concentration (Rhizoctonia solani [2]): 25 µg/mL
diameter of the colonies [3]: 0 mm

CCC[S+]([O-])c1nnc(C(Cl)(Cl)Cl)s1 (stereo not drawn) [Compound 10, 2-trichloromethyl-5-propylsulfinyl-1,3,4-thiadiazole]
diameter of the colonies (Botrytis cinerea): 0 mm
diameter of the colonies (Asperqilus niger): 0 mm
diameter of the colonies (Stemphylium ilicis): 0 mm
diameter of the colonies (Helminthosporium sativum): 0 mm
minimal effective concentration (Rhizoctonia solani [2]): 20 µg/mL
diameter of the colonies [3]: 0 mm

CCCCCCCS(=O)(=O)c1nnc(C(Cl)(Cl)Cl)s1 [Compound 28, 2-trichloromethyl-5-heptylsulfonyl-1,3,4-thiadiazole]
diameter of the colonies (Botrytis cinerea): 0 mm
diameter of the colonies (Asperqilus niger): 0 mm
diameter of the colonies (Stemphylium ilicis): 0 mm
diameter of the colonies (Helminthosporium sativum): 0 mm
minimal effective concentration (Rhizoctonia solani [2]): 200 µg/mL
diameter of the colonies [3]: 0 mm

CCCCCCCCS(=O)(=O)c1nnc(C(Cl)(Cl)Cl)s1 [Compound 29, 2-trichloromethyl-5-octylsulfonyl-1,3,4-thiadiazole]
diameter of the colonies (Botrytis cinerea): 18 mm
diameter of the colonies (Asperqilus niger): 19 mm
diameter of the colonies (Stemphylium ilicis): 0 mm
diameter of the colonies (Helminthosporium sativum): 0 mm
minimal effective concentration (Rhizoctonia solani [2]): > 200 µg/mL
diameter of the colonies [3]: 0 mm

CC[S+]([O-])c1nnc(C(Cl)Cl)s1 (stereo not drawn) [Compound 4, 2-dichloromethyl-5-ethylsulfinyl-1,3,4-thiadiazole]
minimal effective concentration (Rhizoctonia solani [2]): 20 µg/mL
Nematocidal action in % (reduction of attack) (Meloidogyne incognita; 40 mg per liter of soil): 96%
Nematocidal action in % (reduction of attack) (Meloidogyne incognita; 60 mg per liter of soil): 99%

CCC[S+]([O-])c1nnc(C(Cl)Cl)s1 (stereo not drawn) [Compound 5, 2-dichloromethyl-5-propylsulfinyl-1,3,4-thiadiazole]
minimal effective concentration (Rhizoctonia solani [2]): 20 µg/mL
Nematocidal action in % (reduction of attack) (Meloidogyne incognita; 40 mg per liter of soil): 90%
Nematocidal action in % (reduction of attack) (Meloidogyne incognita; 60 mg per liter of soil): 98%

CCCCCS(=O)(=O)c1nnc(C(Cl)(Cl)Cl)s1 [Compound 26, 2-trichloromethyl-5-amylsulfonyl-1,3,4-thiadiazole]
diameter of the colonies (Botrytis cinerea): 0 mm
diameter of the colonies (Asperqilus niger): 0 mm
diameter of the colonies (Stemphylium ilicis): 0 mm
diameter of the colonies (Helminthosporium sativum): 0 mm
minimal effective concentration (Rhizoctonia solani [2]): 25 µg/mL
diameter of the colonies [3]: 0 mm
